Reference: patent US6514519B1, “Edelfosin for the treatment of brain tumors” (Med-Mark Pharma GmbH, priority 1998, dated 2003)
Values joined by “and” are separate entries in the source; they are usually repeats but may differ in a detail not shown here. Identical values can stand only once. “Also recorded” adds a separate entry of the source.

Key:
brain tumors = assay: clinical phase II study with edelfosine: result of therapy and survival time; format: in vivo, humans; settings: for Result of therapy (clin.): assessed on clinical symptoms (clin.)
Experimental: The patients which are listed below in Table 1, with their status before and after treatment, were treated with edelfosine in the phase II study. It is important to emphasize in this connection that virtually all the patients have previously been treated or were from the outset untreatable (inoperable tumors). All the patients were treated with an average of 300 mg of edelfosine/day (range of variation between 50 and 600 mg). […] The carrier medium/active ingredient mixture is drunk in different dose levels/portion, which differed from patient to patient, distributed over the day. Administration is accordingly oral; the treatment is entirely on an outpatient basis, unless the clinical picture makes admission to hospital unavoidable.
The number and duration of previous treatments before the start of therapy with a medicine are crucial for assessing the therapeutic efficacy=survival time and quality of survival; the survival time is in such cases always measured from the time at which the therapy with a medicine is started. The time which has elapsed from diagnosis until the start of treatment initially plays no direct part in this. However, it must be taken into account when the survival time of a last resort therapy (as edelfosine in this case) is compared with that of therapies which are usually started immediately after diagnosis (this is the case for chemotherapy and radiation studies).
For virtually all the patients, a tumor which continued to grow after all the therapies used led to the edelfosine therapy, i.e. the tumor was progressive (cf. Table 1, column “Tumor activity”). The specification of “clinical” progression means in this connection that the tumor was progressive on the basis of deteriorating clinical symptoms (for example increase in headaches, congestion in the head, dizziness, tendency to fall, neurological symptoms in general), but no objective study (for example CT) was available for comparison.
The pharmacodynamic effect, i.e. the effect of a medicine directly on the tumor, is normally measured 2 months after starting a therapy. This pharmacodynamic effect is defined differently depending on which class the substance belongs to (that is to say cytostatic, hormone product, immunomodulator etc.). […] The aim of therapy is accordingly a cessation of tumor growth (no change).
The survival time is measured from the start of therapy with a medicine. The state of the art survival time data reported in the literature for the treatment of brain tumors are usually based on either adjuvant treatment of patients, that is to say directly after surgical removal of a tumor, or else on treatment immediately after making the diagnosis.

[1] = adverse drug reactions (ADR) investigated during phase II studies; format: in vivo, humans
Excerpt: During phase II studies, in accordance with requirements the adverse drug reactions (ADR) were also investigated. The result is shown in Table 2: The grading of the symptoms as transferred to the case report forms took place in accordance with the internationally used WHO classification. The assessment “yes” means that a symptom is caused by the medicine.

healthy cells = settings: healthy vs degenerate cells; cited from earlier work
human leukemic cells = settings: cited from earlier work
[2] = patients with Karnofsky index <70% (N=16)
[3] = ADR caused by edelfosine, number of 150 courses
[4] = ADR caused by edelfosine, number of 159 courses
[5] = ADR not caused by edelfosine, number of 149 courses
[6] = ADR not caused by edelfosine, number of 150 courses
[7] = ADR not caused by edelfosine, number of 159 courses
[8] = ADR possibly caused by edelfosine, number of 150 courses
[9] = ADR possibly caused by edelfosine, number of 159 courses
[10] = no symptom reported, number of 149 courses
[11] = no symptom reported, number of 150 courses

Q: Which Result of therapy (brain tumors; Anaplastic oligodendroglioma) does the source give for `CCCCCCCCCCCCCCCCCCOC[C@H](COP(=O)([O-])OCC[N+](C)(C)C)OC` (racemic) [edelfosine, 1-octadecyl-2-methyl-sn-glycero-3-phosphocholine] here?
A: No further progression

Q: What about the Result of therapy (brain tumors; Astrocytoma II) of the same compound?
A: No further progression

Q: And the Result of therapy (brain tumors; Astrocytoma II/III)?
A: No further progression

Q: And the Survival time (brain tumors; Astrocytoma II/III)?
A: 412 days

Q: What about the “Result of therapy (clin.)” value (brain tumors; Astrocytoma II) of the same compound?
A: No further progression

Q: What about the Result of therapy (brain tumors; Ependymoblastoma) of the same compound?
A: Progression

Q: And the Survival time (brain tumors; Ependymoblastoma)?
A: 196 days

Q: What about the Result of therapy (brain tumors; Glioblastoma (Ø histol.)) of the same compound?
A: Progression

Q: What about the “Result of therapy (clin.)” value (brain tumors; Glioblastoma (Ø histol.)) of the same compound?
A: No further progression

Q: What about the Result of therapy (brain tumors; Glioblastoma IV) of the same compound?
A: Progression

Q: And the Survival time (brain tumors; Glioblastoma IV)?
A: 143 days and 266 days

Q: What about the Result of therapy (brain tumors; Glioblastoma IV + Gliosarcoma) of the same compound?
A: No further progression

Q: What about the Survival time (brain tumors; Glioblastoma IV + Gliosarcoma) of the same compound?
A: 203 days

Q: And the “Result of therapy (clin.)” value (brain tumors; Glioblastoma IV)?
A: No further progression

Q: And the “Result of therapy (clin.)” value (brain tumors; Glioblastoma multiforme)?
A: No further progression

Q: And the “survival of Pat. No. 247” value (brain tumors; Glioblastoma, many years after completion of therapy)?
A: survived until the 8th year

Q: And the Result of therapy (brain tumors; Gliosarcoma)?
A: No further progression

Q: What about the Survival time (brain tumors; Gliosarcoma) of the same compound?
A: 110 days

Q: And the Survival time (brain tumors; Oligoastrocytoma II)?
A: 270 days

Q: And the “Result of therapy (clin.)” value (brain tumors; Oligoastrocytoma II)?
A: No further progression

Q: And the Result of therapy (brain tumors; Oligoastrocytoma IV)?
A: No further progression

Q: What about the Survival time (brain tumors; Oligoastrocytoma IV) of the same compound?
A: 1602 days

Q: What about the Result of therapy (brain tumors; Oligodendroglioma III) of the same compound?
A: No further progression

Q: What about the Survival time (brain tumors; Oligodendroglioma III) of the same compound?
A: 573 days

Q: And the Result of therapy (brain tumors; Oligodendroglioma III/IV)?
A: No further progression

Q: What about the Survival time (brain tumors; Oligodendroglioma III/IV) of the same compound?
A: 2141 days

Q: And the Result of therapy (brain tumors; Oligodendroglioma IV)?
A: No further progression

Q: And the Survival time (brain tumors; Oligodendroglioma IV)?
A: 572 days

Q: What about the “patients with clinical stabilization/improvement although tumor progressive according to imaging” value (brain tumors; after 2 months) of the same compound?
A: 2%

Q: And the “treated patients with tumor still progressive” value (brain tumors; after 2 months)?
A: about 24%

Q: And the “treated patients with stabilization on the basis of clinical symptoms (cNC=clinical no change)” value (brain tumors; after 2 months of therapy, no objective study)?
A: approx. 14%

Q: And the “treated patients with cessation of tumor growth (NC=no change)” value (brain tumors; imaging study after 2 months of therapy)?
A: about 56%

Q: What about the “maximum gain in survival time” value (brain tumors; patients with Karnofsky index <70%) of the same compound?
A: > 20 months

Q: And the average survival time (brain tumors; [2])?
A: about 260 days

Q: What about the “range of variation of survival time” value (brain tumors; [2]) of the same compound?
A: 90 to 619 days

Q: What about the “Appetite, Grade 1 yes” value [1, 3] of the same compound?
A: 4

Q: What about the “Appetite, Grade 2 yes” value [1, 3] of the same compound?
A: 1

Q: And the “Appetite, Grade 3 yes” value [1, 3]?
A: 2

Q: What about the “Constipation, Grade 1 yes” value [1, 3] of the same compound?
A: 3

Q: What about the “Diarrhea, Grade 1 yes” value [1, 3] of the same compound?
A: 5

Q: And the “Diarrhea, Grade 2 yes” value [1, 3]?
A: 1

Q: And the “Nausea/vomiting, Grade 1 yes” value [1, 4]?
A: 12

Q: And the “Nausea/vomiting, Grade 2 yes” value [1, 4]?
A: 2

Q: What about the “CNS toxicity, Grade 1 no” value ([1]; ADR not caused by edelfosine, number of 135 courses) of the same compound?
A: 1

Q: What about the “Skin changes, Grade 4 no” value ([1]; ADR not caused by edelfosine, number of 148 courses) of the same compound?
A: 3

Q: What about the “Alopecia, Grade 1 no” value [1, 5] of the same compound?
A: 3

Q: What about the “Alopecia, Grade 2 no” value [1, 5] of the same compound?
A: 1

Q: What about the “Alopecia, Grade 3 no” value [1, 5] of the same compound?
A: 3

Q: What about the “Alopecia, Grade 4 no” value [1, 5] of the same compound?
A: 16

Q: What about the “Pain, Grade 1 no” value [1, 5] of the same compound?
A: 7

Q: And the “Pain, Grade 2 no” value [1, 5]?
A: 5

Q: And the “Pain, Grade 3 no” value [1, 5]?
A: 3

Q: And the “Periph. neurop., Grade 1 no” value [1, 5]?
A: 18

Q: And the “Appetite, Grade 1 no” value [1, 6]?
A: 4

Q: And the “Appetite, Grade 2 no” value [1, 6]?
A: 1

Q: And the “Appetite, Grade 3 no” value [1, 6]?
A: 4

Q: And the “Appetite, Grade 4 no” value [1, 6]?
A: 1

Q: And the “Arrhythmia, Grade 1 no” value [1, 6]?
A: 5

Q: And the “Constipation, Grade 1 no” value [1, 6]?
A: 1

Q: What about the “Diarrhea, Grade 2 no” value [1, 6] of the same compound?
A: 1

Q: And the “Dyspnea, Grade 1 no” value [1, 6]?
A: 4

Q: And the “Dyspnea, Grade 2 no” value [1, 6]?
A: 3

Q: What about the “Dyspnea, Grade 3 no” value [1, 6] of the same compound?
A: 1

Q: What about the “Dyspnea, Grade 4 no” value [1, 6] of the same compound?
A: 1

Q: What about the “Fever, Grade 1 no” value [1, 6] of the same compound?
A: 1

Q: And the “Fever, Grade 2 no” value [1, 6]?
A: 7

Q: What about the “Hemorrhages, Grade 1 no” value [1, 6] of the same compound?
A: 2

Q: What about the “Infection, Grade 1 no” value [1, 6] of the same compound?
A: 3

Q: And the “Infection, Grade 2 no” value [1, 6]?
A: 1

Q: What about the “Nausea/vomiting, Grade 1 no” value [1, 7] of the same compound?
A: 1

Q: And the “Nausea/vomiting, Grade 2 no” value [1, 7]?
A: 8

Q: What about the “Nausea/vomiting, Grade 3 no” value [1, 7] of the same compound?
A: 2

Q: And the “CNS toxicity, Grade 1 ?” value ([1]; ADR possibly caused by edelfosine, number of 135 courses)?
A: 1

Q: What about the “Alopecia, Grade 1 ?” value ([1]; ADR possibly caused by edelfosine, number of 149 courses) of the same compound?
A: 1

Q: What about the “Appetite, Grade 1 ?” value [1, 8] of the same compound?
A: 5

Q: And the “Appetite, Grade 2 ?” value [1, 8]?
A: 2

Q: And the “Appetite, Grade 3 ?” value [1, 8]?
A: 2

Q: And the “Constipation, Grade 1 ?” value [1, 8]?
A: 3

Q: What about the “Diarrhea, Grade 1 ?” value [1, 8] of the same compound?
A: 1

Q: And the “Nausea/vomiting, Grade 1 ?” value [1, 9]?
A: 5

Q: And the “Nausea/vomiting, Grade 2 ?” value [1, 9]?
A: 6

Q: And the cumulative toxicity ([1]; after several years of uninterrupted therapy)?
A: no cumulative toxicity

Q: And the “reversibility of observed ADR symptoms” value ([1]; edelfosine therapy)?
A: reversible within a very short time (hours)

Q: And the “CNS toxicity, Grade 0” value ([1]; no symptom reported, number of 135 courses)?
A: 133

Q: And the “Skin changes, Grade 0” value ([1]; no symptom reported, number of 148 courses)?
A: 145

Q: And the “Alopecia, Grade 0” value [1, 10]?
A: 125

Q: What about the “Hematuria, Grade 0” value [1, 10] of the same compound?
A: 149

Q: What about the “Pain, Grade 0” value [1, 10] of the same compound?
A: 133

Q: What about the “Periph. neurop., Grade 0” value [1, 10] of the same compound?
A: 131

Q: And the “Stomatitis, Grade 0” value [1, 10]?
A: 149

Q: And the “Appetite, Grade 0” value [1, 11]?
A: 123

Q: And the “Arrhythmia, Grade 0” value [1, 11]?
A: 145

Q: What about the “Constipation, Grade 0” value [1, 11] of the same compound?
A: 143

Q: What about the “Diarrhea, Grade 0” value [1, 11] of the same compound?
A: 142

Q: And the “Dyspnea, Grade 0” value [1, 11]?
A: 141

Q: And the “Fever, Grade 0” value [1, 11]?
A: 142

Q: What about the “Heart failure, Grade 0” value [1, 11] of the same compound?
A: 150

Q: And the “Hemorrhages, Grade 0” value [1, 11]?
A: 148

Q: What about the “Infection, Grade 0” value [1, 11] of the same compound?
A: 146

Q: What about the “Allergy, Grade 0” value ([1]; no symptom reported, number of 151 courses) of the same compound?
A: 151

Q: What about the “Nausea/vomiting, Grade 0” value ([1]; no symptom reported, number of 159 courses) of the same compound?
A: 121

Q: And the “esophagoscopy, gastroscopy findings” value ([1]; patients with nausea/vomiting (gastric pressure) during edelfosine therapy)?
A: no pathological findings at all

Q: What about the “adverse drug reactions of Pat. No. 542” value ([1]; therapy of about 6 years, total dose of about 640 g) of the same compound?
A: negligible adverse drug reactions; also recorded: no ADRs at all

Q: And the “fate in healthy cells after uptake” value (healthy cells)?
A: degraded in healthy cells

Q: And the apoptosis (human leukemic cells)?
A: reinduction of apoptosis
